Tested on: bleomycin treated mice
Assay: Bleomycin-induced pulmonary fibrosis in mice (survival, weight, BAL cells, lung collagen)
Type: in vivo, C57BL/6 mice
Method: The successful aspiration of bleomycin into the lungs was confirmed by listening for a crackling noise heard after the aspiration. 100 μl DMSO or 20 mg/kg RK33 in 100 μl DMSO was given to mice by intraperitoneal (IP) injection at day 10, 12, 14, 16, 18 and 20 after bleomycin treatment. Mice were weighed daily, and euthanized using CO2 following NIH guidelines at day 21 after bleomycin aspiration. The experiment was performed in accordance with the recommendations in the Guide for the Care and Use of Laboratory Animals of the National Institutes of Health. The Texas A&M University Animal Use and Care Committee approved the protocol.
The BALs were clarified by centrifugation at 500×g for 10 minutes, and the supernatants were transferred to Eppendorf tubes. The cells collected from BAL were counted, and BAL cytospins were prepared as described in Fibroblasts secrete Slit2 to inhibit fibrocyte differentiation and fibrosis, Proc Natl Acad Sci USA, 2014, 111: 18291-18296. BAL cytospins were fixed and treated with Wright-Giemsa stain (#08711, Polysciences, Inc., Warrington, PA) following Variation of differential cell counts of bronchoalveolar lavage fluid, Archives of pathology & laboratory medicine, 1986, 110(4): 341-343.
After collection of BAL fluid, mouse lungs were inflated with prewarmed Optimal Cutting Temperature (OCT) embedding medium (VWR, Radnor, PA) and then embedded in OCT, frozen on dry ice, and then stored at −80° C. 8-micron cryosections of mouse lungs were mounted on Superfrost Plus® microscope slides (VWR). The sections on the slides were allowed to air-dry for 24-48 hours. Total collagen on the mouse lung sections were stained with picrosirius red as described in Reduction of bleomycin-induced pulmonary fibrosis by serum amyloid P, J Immunol, 2007, 179: 4035-4044. Hydroxyproline in the mouse lung tissue was measured with a hydroxyproline assay as described in Attenuated pulmonary fibrosis in sialidase-3 knockout (Neu3−/−) mice, Am J Physiol Lung Cell Mol Physiol, 2020, 318(1): L165-L179.

[1] = 20 mg/kg IP, day 21 (FIGS. 6A-6B)

Substance: (diimidazo[4,5-d:4′,5′-f]-[1,3]diazepine) [RK33]
- survival rate (20 mg/kg IP at day 10, 12, 14, 16, 18 and 20, to day 21 (FIG. 3)): dramatically increased
- body weight recovery (20 mg/kg IP at day 10-20 every other day (FIG. 4)): improved
- total cell number in BAL (20 mg/kg IP, day 21 (FIG. 5A)): significantly blocked the bleomycin effect
- total collagen in lungs, hydroxyproline assay (20 mg/kg IP, day 21 (FIG. 7)): reduced the abnormally high levels of collagen
- difference between lung of bleomycin+RK33 treated mouse and control mouse, picrosirius red collagen [1]: no significant difference
- total collagen in lungs, picrosirius red staining [1]: reduced the abnormally high levels of collagen
- percentage of lymphocytes in BAL (20 mg/kg IP, day 21, Wright-Giemsa stain (FIG. 5B)): significantly blocked the bleomycin effect

— patent US20260115201A1, “POTENTIAL THERAPEUTICS FOR FIBROSIS BY BLOCKING THE INCREASE OF A KEY ENZYME” (THE TEXAS A&M UNIVERSITY SYSTEM, priority 2022, published 2026)
